Laboratory results published in US20260183297A1, “SELECTION OF PATIENTS FOR THE TREATMENT OF FADS1-MEDIATED DISEASES OR DISORDERS USING FADS-1 INHIBITORS” (AMGEN INC., priority 2022, published 2026).
pIC50: −log10 of the molar value. Read-outs that look alike come from different tables or passages of the source.

Molecular target: T1, FADS1 (Mus musculus, UniProt Q920L1)
T1 construct: Liver from ^13C5-DGLA dosed DIO mice was collected for pharmacodynamic (PD) analysis; from tissue; host or cells: living DIO C57Bl/6 mice; 13C5-DGLA to 13C5-AA conversion read in liver (A4) or blood plasma (A5)
T1 sequence (Q920L1 1-447): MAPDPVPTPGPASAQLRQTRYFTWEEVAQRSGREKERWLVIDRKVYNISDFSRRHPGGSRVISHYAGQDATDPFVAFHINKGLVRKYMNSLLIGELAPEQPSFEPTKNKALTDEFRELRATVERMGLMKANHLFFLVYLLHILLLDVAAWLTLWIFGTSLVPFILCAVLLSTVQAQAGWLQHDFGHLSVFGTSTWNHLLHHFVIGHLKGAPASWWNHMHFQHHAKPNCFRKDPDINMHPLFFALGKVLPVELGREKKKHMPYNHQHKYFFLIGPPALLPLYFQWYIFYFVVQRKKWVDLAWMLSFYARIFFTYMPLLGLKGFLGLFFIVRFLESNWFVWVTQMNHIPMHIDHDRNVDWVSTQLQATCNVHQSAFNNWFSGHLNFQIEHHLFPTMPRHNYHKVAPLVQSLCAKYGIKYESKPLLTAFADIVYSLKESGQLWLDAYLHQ
Experiment: In vivo FADS1 activity measurement using the liver (13C5-DGLA to 13C5-AA conversion)
Conditions: for pIC50: liver of DIO mice, unbound plasma concentration, read-out: Free (unbound) in vivo IC50
Method: Mice were then dosed by intraperitoneal injection with a solution comprising of a mixture of 0.1 ml solution of ^13C5-DGLA (2 mM in 18.42 mM Na2CO3 buffer). Necropsy were performed at 30 minutes post ^13C5-DGLA dosing. Liver from ^13C5-DGLA dosed DIO mice was collected for pharmacodynamic (PD) analysis and EDTA plasma was collected for compound exposure determination. For PD analysis, 150 mg of frozen liver tissue were premixed with ALA-D14 as an internal standard. Liver samples were homogenized and extracted twice with chloroform/methanol (2:1) solution. The organic phases for the two extractions were pooled and evaporated to dryness under nitrogen gas. The liver extract was resuspended in 200 μl 2N NaOH and saponified at 65° C. for 1 hour. After cooling to room temperature, 100 μl of formic acid was added and the mixture was subjected to two consecutive extractions with a chloroform:methanol (2:1) solution. The pooled organic phases were evaporated to dryness under nitrogen gas and resuspended in a solution containing acetonitrile and methanol at a ratio of 1:1. The extracts were then analyzed by LC/MS/MS for the following analytes: ^13C5-DGLA, ^13C5-AA, with ALA-d14 as the internal standard. The sample (20 μl) was injected onto a Poroshell 120 EC-C18 3.0×50 mm, 1.9 μm id column (Agilent, Santa Clara, CA). The analyte peak areas were quantified using the Analyst software (SCIEX, Framingham, […]). The residual in vivo FADS1 activity was calculated by taking the percent of substrate to product conversion normalized to the vehicle group to determine the percent of control (POC) and the percent inhibition relative to control (vehicle).
To determine the degree of FADS1 inhibition, the in vivo FADS1 activity as the percent of conversion calculated using the following equation: […]
The data were then normalized to the vehicle group to determine the percent of inhibition relative to control (vehicle) by the following equation: […]
To calculate the in vivo potency, dose response graphs were generated by plotting the plasma concentration of the test compound determined from the PK analysis on the abscissa, against the percent of control (POC, relative to vehicle) of the FADS1 activity for each mouse. The data points were then fitted by using the log(inhibitor) vs response nonlinear regression algorithm using GraphPad Prism (version 8.4.3, San Diego CA) to calculate the in vivo IC50 (total).
Free (unbound) IC50 and IC90 values were calculated by first calculating the unbound compound concentration in the plasma by multiplying the plasma concentration of test compound with the fraction unbound (fu) value in mouse plasma determined in the plasma protein binding study. A dose response curve was used to determine the unbound IC50 and IC90 by plotting the unbound plasma concentration of the compound on the abscissa, against the percent of control (POC, relative to vehicle) of FADS1 activity for each mouse. The data points were then fitted with a log (inhibitor) versus response nonlinear regression algorithm using GraphPad Prism (version 8.4.3, San Diego, CA) to calculate the in vivo IC50 (Free).

[1] = DIO mice, single oral dose 10 mg/kg, 24 hours after dosing
[2] = DIO mice, single oral dose 30 mg/kg, 24 hours after dosing
[3] = mouse, DIO mice, single oral dose 10 mg/kg, 24 hours after dosing, read-out: Liver Avg % Inhibition
[4] = mouse, DIO mice, single oral dose 30 mg/kg, 24 hours after dosing, read-out: Liver Avg % Inhibition

Structure (SMILES) | Liver Avg % Conversion (DIO mice, single oral dose 3 mg/kg, 24 hours after dosing) | Liver Avg % Conversion [1] | Liver Avg % Conversion [2] | pIC50 | inhibition at 3 mg/kg (mouse, DIO mice, single oral dose 3 mg/kg, 24 hours after dosing) | inhibition at 10 mg/kg [3] | inhibition at 30 mg/kg [4] | Liver Avg % Conversion (DIO mice, single oral dose 50 mg/kg, 24 hours after dosing) | inhibition at 50 mg/kg (mouse, DIO mice, single oral dose 50 mg/kg, 24 hours after dosing) | inhibition at 10 mg/kg (mouse, DIO mice, 10 mg/kg daily oral, after 54 days of treatment, read-out: FADS1 activity inhibited (residual liver FADS1 activity)) | inhibition at 30 mg/kg (mouse, DIO mice, 30 mg/kg daily oral, after 54 days of treatment, read-out: FADS1 activity inhibited (residual liver FADS1 activity))
N#Cc1ccn2c(=O)c(-c3cnn(CC(F)(F)C(F)(F)F)c3)c(C(F)(F)F)nc2c1 [Compound C] | 14.2% | 4.3% | 1.5% | 8.40 | 83% | 94.8% | 98.2% |  |  |  | 
COc1ccn2c(=O)c(-c3cnn(CC(F)(F)C(F)(F)F)c3)c(C(F)(F)F)nc2n1 [Compound B] |  | 2.2% | 1.5% | 8.40 |  | 97.4% | 98.2% | 1.4% | 98.3% |  | 
COc1ccn2c(=O)c(-c3cnn(CC(F)(F)C(F)(F)F)c3)c(C(F)(F)F)nc2c1 [Compound A, 8-methoxy-3-(1-(2,2,3,3,3-pentafluoropropyl)-1H-pyrazol-4-yl)-2-(trifluoromethyl)-4H-pyrido[1,2-a]pyrimidin-4-one] |  |  |  | 8.70 |  |  |  |  |  | 90% | 93.6%
